Legend:
Format in all cases: cell-based
COX2 = COX2 protein level by immunoblot in glutamate-treated neuron cultures from STEP KO mice; conditions: STEP KO mice neurons; 50 μM glutamate 20 min; post-glutamate time 2 h; MK801 5 μM, SB203580 5 μM, Bengamide B 500 nM, TAT-STEP-myc 4 μM
Method: Cell culture and stimulation: For cell culture studies adult WT male and female mice and STEP KO male and female mice were mated to generate timed pregnant female mice. The males were removed from the females after 24 h period, which was considered gestational day 1. Pregnancy was verified by the presence of vaginal plugs and/or weight gain. Primary neuronal cultures were obtained from 15-day-old mice embryos as described previously (Deep et al., 2019). Briefly, the striatum and the adjoining cortex was dissected, the tissue dissociated mechanically and resuspended in Dulbecco's modified Eagle's medium/F-12 (1:1) containing 5% fetal calf serum. Cells (6×10^6 cells/dish) were plated on poly-D-lysine-coated tissue culture dishes (BD Biosciences) and grown for 12-14 days at 37° C. in a humidified atmosphere (95:5% air:CO2 mixture). For receptor stimulation cells were treated with glutamate or NMDA for the indicated times and then processed for immunoblot analysis. Glycine concentration in the medium during glutamate treatment was 10 μM. […]
In a parallel series of experiments, we further evaluated the expression of COX2, which is involved in the conversion of AA to prostanoids. […] Cell lysates with equal amount of protein from each sample was analyzed by immunoblotting with anti-COX2 (upper panel) or anti-β-tubulin (lower panel) antibodies. Quantification of COX2 is represented as mean±SEM. *, indicates significant difference from untreated control in STEP KO cultures (p<0.05); ^¶, indicates significant difference from glutamate treated STEP KO cultures (p<0.05).
FIGS. 9A-9D show the role of NFκB activation in glutamate induced COX2 expression and PGE2 release. […] (FIG. 9A-C) Cell lysates with equal amount of protein from each sample was analyzed by immunoblotting with (FIG. 9A, B) anti-IκB-α (upper panel) and anti-β-tubulin (lower panel) antibodies, or (C) anti-COX-2 (upper panel) and anti-β-tubulin (lower panel) antibodies. […] (FIG. 9D) Equal amount of culture medium from each sample was analyzed for PGE2 levels using ELISA. […]

PGE2 = PGE2 release into culture medium by ELISA, glutamate-treated neuron cultures from STEP KO mice; conditions: STEP KO mice neurons; 50 μM glutamate; 2 h; MK801 5 μM, SB203580 5 μM, CAY10404 100 nM, Bengamide B 500 nM
Method: Cell culture and stimulation: For cell culture studies adult WT male and female mice and STEP KO male and female mice were mated to generate timed pregnant female mice. The males were removed from the females after 24 h period, which was considered gestational day 1. Pregnancy was verified by the presence of vaginal plugs and/or weight gain. Primary neuronal cultures were obtained from 15-day-old mice embryos as described previously (Deep et al., 2019). Briefly, the striatum and the adjoining cortex was dissected, the tissue dissociated mechanically and resuspended in Dulbecco's modified Eagle's medium/F-12 (1:1) containing 5% fetal calf serum. Cells (6×10^6 cells/dish) were plated on poly-D-lysine-coated tissue culture dishes (BD Biosciences) and grown for 12-14 days at 37° C. in a humidified atmosphere (95:5% air:CO2 mixture). For receptor stimulation cells were treated with glutamate or NMDA for the indicated times and then processed for immunoblot analysis. Glycine concentration in the medium during glutamate treatment was 10 μM. In some experiments, DL-2-amino-5-phosphonopentanoic acid (APV, 200 μM), MK-801 (5 μM), SB203580 (5 μM), CAY10404 (100 nM) or Bengamide B (500 nM) were added […] 10 min before addition of glutamate. Some cultures were treated with the TAT-STEP-myc peptide (4 μM) prior glutamate treatment.
For measurement of PGE2 and soluble CX3CL1 levels released from neurons, culture medium was collected from each experimental plate and centrifuged at 200 g for 5 min to remove cellular debris. […] PGE2 level was assessed using the PGE2 enzyme-linked immunosorbent assay (ELISA) kit (Cat #: K051-H1) from Arbor assays (Ann Arbor, Mich., USA), according to the manufacturer's instructions. Soluble CX3CL1 level was assessed using the ELISA kit (Cat #: MCX310) from R&D systems (Minneapolis, Minn., USA), according to the manufacturer's instructions.
To evaluate the effect of STEP gene deletion on glutamate-mediated PGE2 release in subsequent studies neuron cultures from WT or STEP KO mice were treated with 50 μM glutamate (Glu) for 20 min and then maintained in its original medium for the specified times (post-glutamate time: 2 h and 4 h). […] Equal amount of culture medium from each sample was analyzed for PGE2 levels using ELISA. Values are expressed as mean±SEM. *, indicates significant difference from untreated control in STEP KO cultures (p<0.05); ^¶, indicates significant difference from glutamate treated STEP KO cultures (p<0.05). […]
FIGS. 9A-9D show the role of NFκB activation in glutamate induced COX2 expression and PGE2 release. […] Quantification of IκB-α and COX-2 are represented as mean±SEM. *, indicates significant difference from untreated control in STEP KO culture (p<0.05); ^¶, indicates significant difference from glutamate treated STEP KO culture. […]

cPLA2 = cPLA2 activity assay in glutamate-treated neuron cultures from STEP KO mice; conditions: STEP KO mice neurons; 50 μM glutamate 20 min; MK801 5 μM or SB 203580 5 μM; 2 h after the insult
Method: (§1) Cell culture and stimulation: For cell culture studies adult WT male and female mice and STEP KO male and female mice were mated to generate timed pregnant female mice. The males were removed from the females after 24 h period, which was considered gestational day 1. Pregnancy was verified by the presence of vaginal plugs and/or weight gain. Primary neuronal cultures were obtained from 15-day-old mice embryos as described previously (Deep et al., 2019). Briefly, the striatum and the adjoining cortex was dissected, the tissue dissociated mechanically and resuspended in Dulbecco's modified Eagle's medium/F-12 (1:1) containing 5% fetal calf serum. […]
In FIG. 5A, neuron cultures from WT or STEP KO mice were treated with 50 μM glutamate (Glu) for 20 min and then maintained in its original medium for the specified time (2 h and 4 h). […] Cell lysates with equal amount of protein from each sample was analyzed for cPLA2 activity using enzymatic assay. Values are expressed as mean±SEM. *, indicates significant difference from untreated control in WT cultures (p<0.05); ^Δ, indicates significant difference from untreated control in STEP KO cultures (p<0.05); ^¶, significant difference from 20 min glutamate treatment in STEP KO cultures (p<0.05). […]

IκB-α = test: IκB degradation (NF-κB activation) by immunoblot in glutamate-treated neuron cultures from STEP KO mice; conditions: STEP KO mice neurons; 50 μM glutamate; 2 h
Method: as §1
Earlier studies have shown that the nuclear factor kappa B (NF-κB) is a key regulator of COX2 expression in different cell types (Yamamoto et al., 1995; Kaltschmidt et al., 2002; Guo et al., 2013; Ackerman et al., 2008; Shi et al., 2015), and the ionotropic glutamate receptors is one of the activators of NF-κB in neurons (Kaltschmidt et al., 2005). To clarify the role of NF-κB in glutamate-NMDAR induced activation of the COX-2-PGE2 signaling pathway in STEP KO mice neurons, we next evaluated the effect of glutamate on IκB degradation, a seminal step in NF-κB activation (Karin and Ben-Neriah 2000; Rajagopal et al., 2019). […]

CCCCCCCCCCCCCC(=O)O[C@H]1CC[C@H](NC(=O)[C@H](OC)[C@H](O)[C@@H](O)[C@H](O)/C=C/C(C)C)C(=O)N(C)C1 [Bengamide B]
glutamate-induced increase in COX2 level (COX2): attenuated | glutamate-induced PGE2 release (PGE2): significant reduction

C[S+]([O-])c1ccc(-c2nc(-c3ccncc3)c(-c3ccc(F)cc3)[nH]2)cc1 (centres unmarked) [SB 203580, SB203580]
cPLA2 activity (cPLA2): significantly reduced | glutamate-induced increase in COX2 level (COX2): attenuated | glutamate-induced PGE2 release (PGE2): significantly reduced | glutamate-induced IκB degradation (IκB-α): effectively blocked

CS(=O)(=O)c1ccc(-c2noc(C(F)(F)F)c2-c2ccccc2)cc1 [CAY10404]
glutamate-induced PGE2 release (PGE2): significantly reduced

C[C@]12N[C@H](Cc3ccccc31)c1ccccc12 [MK801, MK-801]
cPLA2 activity (cPLA2): significantly reduced | glutamate-induced increase in COX2 level (COX2): attenuated | glutamate-induced PGE2 release (PGE2): significantly reduced | glutamate-induced IκB degradation (IκB-α): effectively blocked

Source: US20230130579A1, “REGULATION OF POST-ISCHEMIC INFLAMMATORY RESPONSE: A NOVEL FUNCTION OF TYROSINE PHOSPHATASE STEP” (UNM Rainforest Innovations, priority 2020, published 2023)
